Earlier results, collected in EP3932402A1, “ADAM17 INHIBITORS FOR USE IN THE PREVENTION AND/OR TREATMENT OF COVID-19” (Max-Delbrück-Centrum für Molekulare Medizin in der …, priority 2020, dated 2022).

Key:
ADAM17 = biological target: T1, ADAM17 (Homo sapiens, UniProt P78536); conditions: Moss et al., 2008
T1 construct: host or cells: patients (endogenous enzyme)

ADAM17, ADAM10 = conditions: in combination with trastuzumab; Newton et al

T1 sequence (P78536 215-824): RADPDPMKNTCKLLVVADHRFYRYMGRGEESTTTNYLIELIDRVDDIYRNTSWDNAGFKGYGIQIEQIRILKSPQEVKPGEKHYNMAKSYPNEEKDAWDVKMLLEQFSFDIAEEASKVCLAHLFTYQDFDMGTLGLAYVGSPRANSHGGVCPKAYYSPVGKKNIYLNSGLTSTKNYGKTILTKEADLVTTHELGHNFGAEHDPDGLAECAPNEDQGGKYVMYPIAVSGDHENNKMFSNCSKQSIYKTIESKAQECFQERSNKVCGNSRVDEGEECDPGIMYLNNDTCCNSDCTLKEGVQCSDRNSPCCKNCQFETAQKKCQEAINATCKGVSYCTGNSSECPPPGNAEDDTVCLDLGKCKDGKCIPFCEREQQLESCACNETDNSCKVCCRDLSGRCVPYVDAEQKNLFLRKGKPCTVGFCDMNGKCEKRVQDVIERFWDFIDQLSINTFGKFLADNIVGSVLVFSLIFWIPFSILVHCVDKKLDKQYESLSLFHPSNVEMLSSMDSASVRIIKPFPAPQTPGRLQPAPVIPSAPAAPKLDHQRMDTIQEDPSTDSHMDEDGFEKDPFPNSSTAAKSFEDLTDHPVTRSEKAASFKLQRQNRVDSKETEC

| SMILES | reason for discontinued development (ADAM17) | proof of concept in sepsis and rheumatoid arthritis (ADAM17; clinical Phase II) | HER2 cleavage (ADAM17, ADAM10) | clinical response rate (ADAM17, ADAM10) | pro-coagulant effects (adult patients) | deep venous thrombosis, incidence (solid tumors and breast cancer) | dose limiting toxicity (solid tumors and breast cancer) | severity of adverse effects (solid tumors and breast cancer) |
| --- | --- | --- | --- | --- | --- | --- | --- | --- |
| CON(Cc1ccc(F)cc1)C(=O)C=C1OC(C)(C)OC1=O [BMS-561392, Acetamide, 2-(2,2-dimethyl-5-oxo-1,3-dioxolan-4-ylidene)-N-((4-fluorophenyl)methyl)-N-methoxy-] | concerns over liver toxicity | beneficial effects | – | – | – | – | – | – |
| COC(=O)N1CC2(CC2)C[C@H](C(=O)NO)[C@H]1C(=O)N1CCN(c2ccccc2)CC1 [INCB7839, methyl (6S,7S)-7-(hydroxycarbamoyl)-6-(4-phenylpiperazine-1-carbonyl)-5-azaspiro[2.5]octane-5-carboxylate] | – | – | markedly reduced | markedly reduced | observed in some adult patients | 9/41 | deep venous thrombosis | mild to moderate |
